Assay results reported in patent publication US9880171B2, “iASPP phosphorylation and metastatic potential” (LUDWIG INSTITUTE FOR CANCER RESEARCH LTD., priority 2012, dated 2018).
Entries after “also recorded” stand apart in the source; their conditions may differ.

Legend:
[1] = tested on: iASPP modification and p53-iASPP binding in WM278 cells; assay: iASPP modification and p53 co-immunoprecipitation in WM278 cells; type: cell-based, human
Description: For WB, cells were lysed in buffer containing 8 M urea, 1 M thiourea, 0.5% CHAPS, 50 mM DTT, and 24 mM spermine. A total of 40 μg of protein extract was loaded per lane into SDS-polyacrylamide gels. Gels were transferred onto nitrocellulose membrane (Protran) and the resulting blots incubated first with primary antibody overnight at 4° C. and then with the appropriate secondary horseradish peroxidize-conjugated antibody (Dako). The results were visualized by enhanced chemiluminescent detection (Amersham Biosciences) using X-ray film (Fujifilm). For cell lysate immunoprecipitation, cells were dissolved in NP40 buffer (50 mM Tris-HCl pH 8.0, 150 mM NaCl, 1% NP-40) with protease inhibitor cocktail mix (Roche Diagnostics). Cells were further thoroughly broken by ultrasonication, followed by spinning for 1 hour. Achieved suspension was adjusted to 1-2 mg/ml using NP40 buffer and incubated with 20 μl nickel beads, glutathione beads, or protein A beads (with 2 μg required antibody) for 2 h at room temperature. The beads were washed for four times with NP40 buffer, boiled for 5 min in Laemmli sample buffer, and applied for Western blotting. For pure protein immunoprecipitation, 5-10 μg purified proteins were mixed in NP40 buffer with 1 mg/ml BSA for 2 h at room temperature.

[2] = tested on: iASPP phosphorylated at ser 113; assay: phospho-ser113 iASPP western blot in nocodazole-treated U2OS cells; type: cell-based, human; conditions: nocodazole 1 μM 16 hours, 0.5 μM JNJ-7706621
Description: For the floating and adherent cells, the rounded (mitotic rich) cells were separated from the adherent cells after 24 hours treatment with nocodazole. Lysates were separated on a 6% SDS PAGE gel and proteins analysed by conventional western blotting. iASPP phosphor-[…] was detected using the antibody from rabbit 42310 as described in FIG. 23A, and total iASPP was detected by re-probing the blot with antibody LX049.3. Nucleolin was used as a loading control. […] Consistent with enhanced iASPP phosphorylation in nocodazole arrested mitotic cells, enhanced iASPP phosphorylation on ser 113 was also observed in the floating cells, which are mostly mitotic cells, and not in adherent cells (FIG. 23B). Total iASPP was detected by re-probing the blot with antibody LX049.3. Additionally, the specific binding of iASPP antibody (42310) to phosphorylated ser 113 were evaluated by determining the failure of iASPP antibody (42310) to bind when the protein is not phosphorylated at ser 113. Since CDK kinase phosphorylates iASPP at ser 113, CDK inhibitor JNJ-7706621 was used to treat human U2OS cells. […] Western blotting was carried out as described in FIG. 23B using an 8% SDS PAGE gel. When compared to untreated cells, binding of phosphor-ser 113 specific […] antibody was not observed in the presence 0.5 μM JNJ-7706621 (FIG. 23C). Total iASPP was detected by re-probing the blot with antibody LX049.3.

iASPP(-/-)MEFs = assay: apoptosis markers (c-PARP, c-Caspase 3) in Ras and E1A transformed iASPP(-/-) MEFs; type: cell-based, mouse; conditions: vector transfected iASPP(-/-)MEFs, 24 hours
Description: FIG. 9. […] A. iASPP S84D/S113D binds p53 better than WT iASPP in vitro. in vitro translated iASPP-V5 (WT) or its mutant iASPP(S84D/S113D) (S84D/S113D) (Input) were incubated with nickel beads that were pre-bound with either p53(2-193)-His (p53) or BSA (BSA) to carry out an immunoprecipitation assay (IP). The amount of iASPP that was co-immunoprecipitated with p53 was detected by an anti-V5 antibody (iASPP V5 panel) whereas the amount of p53 immunoprecipitated was detected by an anti-His antibody (p53(2-193)-His panel). B iASPP S84D/S113D binds p53 better than WT iASPP in transfected cells. iASPP-V5 (WT) or its mutant iASPP(S84D/S113D) (S84D/S113D) and p53 were co-transfected in H1299 cells (Input). […] The amount of p53 pulled down is shown in (p53 panel) whereas p53 bound iASPP was determined by anti-V5 antibody (iASPP V5 panel). […] The expression levels of known apoptosis markers were detected in immunoblotting using D214 or D175 to detect cleaved PARP (c-PARP) or caspase 3 (c-caspase 3) respectively. […] Cells were dissolved in urea buffer and apoptosis markers (cleaved PARP, caspase-3) were determined by WB.
The anti-apoptotic function of iASPP and its mutant iASPP(S84D/S113D) was tested in Ras and E1A transformed iASPP(−/−)MEFs (referred to as iASPP(−/−)MEFs). […] Apoptosis was measured by the presence of cleaved PARP (c-PARP) or active caspase 3 (c-Caspase 3). […]

[3] = tested on: WM278, Me300 and SK-MEL37 melanoma cell lines; assay: clonogenic survival / colony formation assay, Example 8
Description: Cells were transfected with siRNA as shown and pre-seeded on 6 well plates ON, 0.3 μM cyclin B1/cdk1 inhibitors K00616a were then added for 48 hours to block iASPP modification. Cells were then treated with 0.3 μM K00616a, 20 μM nutlin3, or combinations of these drugs for another 72 hours. Cells were collected and cell cycle status, growth potential, and protein expression pattern were then determined by PI staining/FACS analysis, colony formation assay, and WB, respectively. […] Cells were pre-seeded on 6 well plates for overnight, 0.3 μM cyclin B1/cdk1 inhibitors K00616a were then added for 48 hours to block iASPP modification. Cells were then treated with 0.3 μM K00616a, 20 μM nutlin3, 1 μM PLX4032, or combinations of these drug for another 72 hours. Cells were collected and cell cycle status, growth potential, and protein expression pattern were then determined by PI staining/FACS analysis, colony formation assay, and WB, respectively.
After drugs treatment, cells were digested, counted, and seed in 6-well plates (100, 1 000, 10 000 cells/well). […]
The ability of K00616a to reactivate wild type p53 function in melanoma cells was tested in three melanoma cell lines that all express B-RAFV600E. […] Wild type p53 function was measured by a p53-dependent apoptosis assay, detecting the percentage of cells containing subG1 DNA content and growth suppression in a clonogenic survival assay.

Nc1nc(Nc2ccc(S(N)(=O)=O)cc2)nn1C(=O)c1c(F)cccc1F [JNJ-7706621]
amount of modified iASPP ([1]; 0.4 μM JNJ or 10 μM nocodazole overnight): reduced the amount of modified iASPP
binding of iASPP to p53 (co-immunoprecipitation) ([1]; 0.4 μM JNJ, listed as JNJ): failed to co-immunoprecipitate iASPP; also recorded: able to prevent iASPP from binding to p53
binding of phosphor-ser 113 specific anti-iASPP antibody (iASPP ser 113 phosphorylation) [2]: not observed

COc1ccc(C2=N[C@@H](c3ccc(Cl)cc3)[C@@H](c3ccc(Cl)cc3)N2C(=O)N2CCNC(=O)C2)c(OC(C)C)c1 [Nutlin3]
apoptosis (increase in c-PARP and c-Caspase 3) (iASPP(-/-)MEFs): apoptosis was detected
growth suppression (colonies) ([3]; WM278, Me300 and SK-MEL37, agent alone): limited
effect on the growth suppression effects of PLX4032 ([3]; added alone to PLX4032): minimal effect
